ChEMBL document CHEMBL1177773, “Design, synthesis and anticancer activity of piperazine hydroxamates and their histone deacetylase (HDAC) inhibitory activity” (Bioorg Med Chem Lett, 2010)

Experiments:
[1] = test system: U-251; test: Cytotoxicity against human U251 cells after 48 hrs by MTT assay; assay type: functional; conditions: for CC50: read-out: LC50 (the source's name)
[2] = test system: HCT-116; test: Cytotoxicity against human HCT116 cells after 48 hrs by MTT assay; assay type: functional; conditions: for CC50: read-out: LC50 (the source's name)
[3] = test system: NCI-H460; test: Cytotoxicity against human NCI-H460 cells after 48 hrs by MTT assay; assay type: functional; conditions: for CC50: read-out: LC50 (the source's name)
[4] = molecular target: T1, Histone deacetylase 8 (Homo sapiens, UniProt Q9BY41); test: Inhibition of human HDAC8
T1 sequence (Q9BY41 whole entry): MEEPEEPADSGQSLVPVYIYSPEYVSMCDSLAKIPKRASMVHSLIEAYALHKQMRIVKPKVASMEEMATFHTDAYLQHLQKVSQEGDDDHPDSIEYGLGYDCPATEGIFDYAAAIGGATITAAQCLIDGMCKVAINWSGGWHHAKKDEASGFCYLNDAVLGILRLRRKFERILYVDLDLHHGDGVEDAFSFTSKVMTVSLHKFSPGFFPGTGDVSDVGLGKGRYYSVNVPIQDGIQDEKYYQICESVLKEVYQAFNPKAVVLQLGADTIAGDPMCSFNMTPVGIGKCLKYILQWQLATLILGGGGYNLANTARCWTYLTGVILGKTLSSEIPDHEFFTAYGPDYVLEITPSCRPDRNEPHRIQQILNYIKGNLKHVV

[5] = test system: HL-60; test: Growth inhibition of human HL60 cells after 48 hrs; assay type: functional, cell-based; conditions: HL-60, 48 h

O=C1Nc2ccccc2/C1=N/NC(=S)N1CCN(C(=O)NO)CC1
GI50 ([1]; Homo sapiens, U-251, 48 h): > 100 µM | CC50 ([1]; Homo sapiens, U-251, 48 h): > 100 µM | GI50 ([2]; Homo sapiens, HCT-116, 48 h): > 100 µM | CC50 ([2]; Homo sapiens, HCT-116, 48 h): > 100 µM | GI50 ([3]; Homo sapiens, NCI-H460, 48 h): > 100 µM | CC50 ([3]; Homo sapiens, NCI-H460, 48 h): > 100 µM

O=C(NO)N1CCN(C(=S)N/N=C/c2c3ccccc3cc3ccccc23)CC1
GI50 ([1]; Homo sapiens, U-251, 48 h): 65 µM | CC50 ([1]; Homo sapiens, U-251, 48 h): > 100 µM | GI50 ([2]; Homo sapiens, HCT-116, 48 h): 70 µM | CC50 ([2]; Homo sapiens, HCT-116, 48 h): > 100 µM | GI50 ([3]; Homo sapiens, NCI-H460, 48 h): 9.5 µM | CC50 ([3]; Homo sapiens, NCI-H460, 48 h): > 100 µM

O=C(NO)N1CCN(C(=S)N/N=C/c2ccccc2O)CC1
GI50 ([1]; Homo sapiens, U-251, 48 h): 14.2 µM | CC50 ([1]; Homo sapiens, U-251, 48 h): > 100 µM | IC50 [4]: 33.7 µM | GI50 ([2]; Homo sapiens, HCT-116, 48 h): 8.6 µM | CC50 ([2]; Homo sapiens, HCT-116, 48 h): > 100 µM | GI50 ([3]; Homo sapiens, NCI-H460, 48 h): 5.15 µM | CC50 ([3]; Homo sapiens, NCI-H460, 48 h): > 100 µM | IC50 [5]: 0.6 µM

O=C(NO)N1CCN(C(=S)N/N=C/c2ccc(Cl)cc2)CC1
GI50 ([1]; Homo sapiens, U-251, 48 h): 8.5 µM | CC50 ([1]; Homo sapiens, U-251, 48 h): > 100 µM | IC50 [4]: 43.2 µM | GI50 ([2]; Homo sapiens, HCT-116, 48 h): 11.6 µM | CC50 ([2]; Homo sapiens, HCT-116, 48 h): > 100 µM | GI50 ([3]; Homo sapiens, NCI-H460, 48 h): 16 µM | CC50 ([3]; Homo sapiens, NCI-H460, 48 h): > 100 µM

Cc1ccc(/C=N/NC(=S)N2CCN(C(=O)NO)CC2)cc1
GI50 ([1]; Homo sapiens, U-251, 48 h): 27.5 µM | CC50 ([1]; Homo sapiens, U-251, 48 h): > 100 µM | GI50 ([2]; Homo sapiens, HCT-116, 48 h): 31 µM | CC50 ([2]; Homo sapiens, HCT-116, 48 h): > 100 µM | GI50 ([3]; Homo sapiens, NCI-H460, 48 h): 51 µM | CC50 ([3]; Homo sapiens, NCI-H460, 48 h): > 100 µM

O=C(NO)N1CCN(C(=S)N/N=C/c2ccccc2Cl)CC1
GI50 ([1]; Homo sapiens, U-251, 48 h): 13.5 µM | CC50 ([1]; Homo sapiens, U-251, 48 h): > 100 µM | GI50 ([2]; Homo sapiens, HCT-116, 48 h): 11.5 µM | CC50 ([2]; Homo sapiens, HCT-116, 48 h): > 100 µM | GI50 ([3]; Homo sapiens, NCI-H460, 48 h): 30 µM | CC50 ([3]; Homo sapiens, NCI-H460, 48 h): > 100 µM

O=C(CCCCCCC(=O)Nc1ccccc1)NO [VORINOSTAT]
GI50 [1]: 6.5 µM | CC50 [1]: > 100 µM | CC50 [2]: > 100 µM | GI50 [3]: 8 µM | CC50 [3]: > 100 µM
